Experimental findings from US6498182B2, “Compounds” (Biovitrum AB, priority 2000, dated 2002) are described below.

The target in the experiment is T1, Human PTP1B (Homo sapiens, UniProt P18031).
T1 construct: Human PTP1B (amino acid residues 1-298, cloned from a human placental library); made in house; host or cells: E. coli BL21(DE3)
T1 sequence (P18031 1-298): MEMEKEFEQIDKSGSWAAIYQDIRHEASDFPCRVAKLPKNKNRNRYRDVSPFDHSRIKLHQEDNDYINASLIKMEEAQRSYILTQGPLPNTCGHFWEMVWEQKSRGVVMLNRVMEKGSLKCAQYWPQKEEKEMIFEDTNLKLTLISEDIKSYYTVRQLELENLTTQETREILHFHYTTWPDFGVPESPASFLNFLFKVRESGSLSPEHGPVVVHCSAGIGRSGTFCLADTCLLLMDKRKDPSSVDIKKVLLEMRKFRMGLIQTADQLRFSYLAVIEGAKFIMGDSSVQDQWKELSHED
In words: PTP1B activity, pNPP substrate, 96-well plate. It counts as biochemical. To be noted: 2 mM, control wells. As to the method: Human PTP1B (amino acid residues 1-298, cloned from a human placental library), without the GST tag and thrombin cleavage site, was inserted into a pMB replicon and transformed into E. coli BL21(DE3), a strain containing a chromosomal copy of the gene for T7 RNA polymerase under control of a lacUV5 promoter. Expression of PTP1B was induced with isopropyl thiogalactose and cells were lysed in lysis buffer comprising 50 mM Tris-HCl pH 7.5, 10% glycerol, 1 mM EDTA, 3 mM DTT, 3 mM MgCl2, and 0.2 mg/ml lysozyme with 1 mg/ml DNAse I. The soluble protein was purified by ion exchange, hydrophobic interaction and gel exclusion chromatography for use in assays to identify PTP1B inhibitors. The plasmid pGEX2K-SHP2 which encoded the catalytic domain of human SHP-2 (residues 252-529) was used to transform E. coli cells. […]
Human PTP1B activity was measured using p-nitrophenol phosphate (pNPP) as substrate in a 96-well microtiter plate format. An assay pH of 7.2 is used for standard assays (measured extinction coefficient=9800 at pH 7.2).
Standard assays were conducted at room temperature in a total volume of 0.2 ml that contains Hepes buffer (50 mM, pH 7.2), NaCl (50 mM), EDTA (1 mM), DTT (1 mM), bovine serum albumin (1 mg/ml), pNPP (1.25 mM) and PTP1B (500 ng/ml, 13.5 nM). […] The OD^405 was subsequently measured. […]

As to `[Na+].[Na+].[Na+].[O]=[V]([O-])([O-])[O-]` [sodium orthovanadate], the “inhibition of PTP1B-catalyzed hydrolysis of pNPP” value is “completely”.
